These results are taken from patent publication US6436987B1, “Crystalline forms of (3S-trans)-2-[3,4-dihydro-4-hydroxy-3-(phenylmethyl)-2H-1-benzopyran-7-yl]-4-(trifluoromethyl)-benzoic acid” (Pfizer Inc., priority 2000, dated 2002).

Molecules are shown by their SMILES. ≈ marks a conversion by molar mass, not a printed value. Counter-ions that a name gives are not always drawn.

Holding throughout (format): physicochemical
Series [1] can be described thus: comparison of forms: solubility in aqueous solvents. As to conditions: polymorph B versus polymorph A; salt versus all other known forms.
Series [2] can be described thus: equilibrium solubility determined during polymorph screen. Particulars: thermodynamic from solid; pH 7 water, four days at ambient temperature. As to the method: Using the microscopy methods described by Haleblaine and McCrone, Journal of Pharmaceutical Sciences, 58(8), pp. 911-929, 1969, a polymorph screen was conducted for the ethylene diamine (mono) salt of compound (I). No polymorphs were observed. A more extensive polymorph screen was run on the (mono) salt of compound (I′), involving 31 isolations, and again no polymorphs were observed. During the polymorph screen, an equilibrium solubility for the ethylene diamine (mono) salt of compound (I) was determined. After maintaining a sample for four days at ambient temperature, an equilibrium solubility value of approximately 4 mg/ml was determined, in pH 7 water. Additionally, the ethylene diamine (bis) salt was not observed in these studies.

Series [3] is described as follows: comparison of forms: thermal stability.
Series [4] can be described thus: hygroscopicity: weight gain at 87% RH. As to conditions: for weight gain (hygroscopicity): after 72 hours at 87% RH. As to the method: Polymorph A has an X-ray powder diffraction pattern that is unique to the form as previously described (FIG. 1). Upon microscopic examination, crystals appear as small needles and aggregates thereof, but which are not reliably distinguished from those of polymorph B (FIG. 2). By fusion microscopy, polymorph A is determined to commence melting at about 144° C., with no recrystallization noted upon further temperature increases. […] (FIG. 5).

Series [5] is described as follows: equilibration of forms under ambient conditions (relative energy). An excerpt: As evaluated by equilibration of the polymorphs (A and B) under ambient conditions, polyporph A is the lower energy form.
Series [6] can be described thus: conversion (bridging) to polymorph A in solvent. As to the method: Polymorph B crystals may also be converted back to polymorph A crystals by placement in a solvent in which the B form is very slightly soluble, such as n-hexanes. Over a period of time (for example, no more than 18 hours) crystals of polymorph A will develop. Prolonged granulation (for example 18 hours) even when conducted at 5° C. will also effect conversion to polymorph A.
(§1) Examples of suitable solvent include ethyl acetate: hexanes 1:5.

The nature of series [7]: solid-state storage stability in sealed dark glass bottle under nitrogen. Particulars: sealed dark colored glass bottle, under nitrogen gas.
From the text: However, polymorph B may be stably stored in solid form. If placed in a sealed dark colored glass bottle, under nitrogen gas, polymorph B crystals are stable for at least 6 weeks.
as §1

A short description of series [8]: salt screen for suitable crystalline properties. As to conditions: salt of compound (I′). As to the method: Again using compound (I′), the following salt species were prepared and screened for the presence of suitable crystalline properties. […] The olamine salt was recovered as an oil. The meglumine salt material was determined to be amorphous. Both the benzathine (mono) and benzathine (bis) salts were also determined to be amorphous. Crystalline solids could also not be prepared for the L-arginine, L-lysine, calcium, potassium, and magnesium salts.

Regarding `O=C(O)c1ccc(C(F)(F)F)cc1-c1ccc2c(c1)OC[C@H](Cc1ccccc1)[C@H]2O` [(3S-trans)-2-[3,4-dihydro-4-hydroxy-3-(phenylmethyl)-2H-1-benzopyran-7-yl]-4-(trifluoromethyl)-benzoic acid], the “solubility in aqueous solvents relative to other forms” value in series [1] is recorded as “greater solubility in aqeuous solvents”. The solubility (thermodynamic) (commonly the concentration in solution at equilibrium with solid) at 4 days in series [2] is about 4 mg/mL (≈ 9.34 mM).

On to `O=C(O)c1ccc(C(F)(F)F)cc1-c1ccc2c(c1)OC[C@H](Cc1ccccc1)[C@H]2O` [Polymorph A, (3S-trans)-2-[3,4-dihydro-4-hydroxy-3-(phenylmethyl)-2H-1-benzopyran-7-yl]-4-(trifluoromethyl)-benzoic acid], for which, in series [3], the “thermal stability relative to all other known forms of compound (I)” value was “greater thermal stability”. Also, the hygroscopicity in words result in series [4] (87% RH, ambient temperature) is reported as “substantially non-hygroscopic”. The “weight gain (hygroscopicity)” value in series [4] (again at ambient temperature (second value stated)) was found to be 0.36%; in series [4] (ambient temperature (first value stated)) it was 0.2%. Besides, in series [5], the “relative energy of the crystal form” value is reported as “lowest energy form”.

Turning to `O=C(O)c1ccc(C(F)(F)F)cc1-c1ccc2c(c1)OC[C@H](Cc1ccccc1)[C@H]2O` [monohydrate, (3S-trans)-2-[3,4-dihydro-4-hydroxy-3-(phenylmethyl)-2H-1-benzopyran-7-yl]-4-(trifluoromethyl)-benzoic acid], the “bridging to polymorph A” value in series [6] (hexanes alone) is reported as “no bridging occurs”; in series [6] (solvents with some minimal solubility, e.g. ethyl acetate: hexanes 1:5) it was “readily bridges to polymorph A”. Further, the “relative energy of the crystal form” value in series [5] is “higher in energy than polymorph A”. In series [7], the “time stable in solid form” value is reported as “at least six weeks”.

For the molecule `O=C(O)c1ccc(C(F)(F)F)cc1-c1ccc2c(c1)OC[C@H](Cc1ccccc1)[C@H]2O` [polymorph B, (3S-trans)-2-[3,4-dihydro-4-hydroxy-3-(phenylmethyl)-2H-1-benzopyran-7-yl]-4-(trifluoromethyl)-benzoic acid], the “time for conversion to polymorph A” value in series [6] (in a solvent in which the B form is very slightly soluble, such as n-hexanes) is on record as “no more than 18 hours”. The “solubility in aqueous solvents relative to other forms” value in series [1] was “greater solubility in aqeuous solvents”. The “time stable in solid form” value in series [7] is on record as “at least 6 weeks”.

For `O=C(O)c1ccc(C(F)(F)F)cc1-c1ccc2c(c1)OC[C@@H](Cc1ccccc1)[C@@H]2O` [sodium salt, (3R-trans)-2-[3,4-dihydro-4-hydroxy-3-(phenylmethyl)-2H-1-benzopyran-7-yl]-4-(trifluoromethyl)-benzioc acid], in series [8], the hygroscopicity of salt entry is “hygroscopic, becoming an oil”.
